System: Scenedesmus cavuolatus (CS, Chlorella fusca)
Test: Determination of the resistance to colonization by algae (render coat on paper, media for algae)
Format: cell-based
Settings: +0.25% benzalkonium chloride, 50% strength, 5 month storage
Experimental: The unfinished material (commercially available render, pH 11.5) is treated, in separate batches, with different concentrations of the preservative A according to the invention.
The test was carried out once after the samples had been prepared and then after storage in wet render for 3 months or 5 months.
Laboratory method for determining the resistance of facade coats to colonization by algae. In this method, facade coats on standardized paper are used as the test substrate, and Scenedesmus cavuolatus (CS, Chlorella fusca) as the test alga.
The experiments are carried out in Petri dishes on media for algae.
1000 g of the material to be finished were, in separate batches, mixed with various concentrations of the test microbicide and homogenized using a suitable stirrer.
Paper supports (Schleicher & Schüll No. 2589 B/X 24078) 90×270 mm in size are coated with the test material. The paint or render samples are applied as a coat to wet-layer thickness of 250 μm, using a knife. The knife must have an opening of at least 6.5 cm in width. In the case of renders, the layer thickness depends on the particle size, as is the case under practice conditions. The coated supports, hereinbelow referred to as test specimens, are subsequently dried for 5 days in a horizontal position. […]
The colonization of the samples with algae is examined and evaluated after 2 weeks. […]

**Q.** What does the source list for “benzalkonium chloride [benzalkonium chloride, 50% strength]”?
**A.** Inhibitory zone in mm (first group of rows (leaching not given, presumably none)): >18 mm; Inhibitory zone in mm (second group of rows (leaching not given, presumably 72 h)): >18 mm

— US20070093538A1, “Preparation for the fungicidal and algicidal finish of alkaline coating compositions” (priority 2005, published 2007)
